Data taken from US20110160255A1, “INHIBITORS OF AKT ACTIVITY” (priority 2008, published 2011).

Target: T1, full length AKT1 (Homo sapiens, UniProt P31749)
T1 construct: His tag (from vector pFastBacHTb) (N); made in house; host or cells: Baculovirus, insect cells (virus made in Sf9, T. ni cells infected; the purification text says sf9 cells)
Assay: Full-length AKT enzyme assay (substrate phosphorylation, SPA)
Format: biochemical
Conditions: in at least one experimental run; pIC50 = -log(IC50), IC50 in molar units; 4 uM ATP, 10 nM activated enzyme; read-out: pIC50 against full length AKT1 (converted)
Description: Full-length human AKT1 gene was amplified by PCR from a plasmid containing myristylated-AKT1-ER (gift from Robert T. Abraham, Duke University under MTA, described in Klippel et al. in Molecular and Cellular Biology 1998 Volume 18 p. 5699) using the 5′ primer: SEQ. ID NO: 2 5′ […] 3′ and the 3′ primer: SEQ. ID NO: 3 […] 3′. The 5′ primer included a BamHI site and the 3′ primer included an XhoI site for cloning purposes. The resultant PCR product was subcloned in pcDNA3 as a BamHI/XhoI fragment. A mutation in the sequence (TGC) coding for a Cysteine^25 was converted to the wild-type AKT1 sequence (CGC) coding for an Arginine^25 by site-directed mutagenesis using the QuikChange® Site Directed Mutagenesis Kit (Stratagene). The AKT1 mutagenic primer: SEQ. ID NO: 4 5′[…] and selection primer: SEQ. […] For expression/purification purposes, AKT1 was isolated as a BamHI/XhoI fragment and cloned into the BamHI/XhoI sites of pFastbacHTb (Invitrogen).
Expression was done using the BAC-to-BAC Baculovirus Expression System from Invitrogen (catalog #10359-016). […]
Compounds of the present invention were tested for AKT 1, 2, and 3 protein serine kinase inhibitory activity in substrate phosphorylation assays. […] Substrate phosphorylation was detected by the following procedure. […]

T1 sequence (P31749 whole entry): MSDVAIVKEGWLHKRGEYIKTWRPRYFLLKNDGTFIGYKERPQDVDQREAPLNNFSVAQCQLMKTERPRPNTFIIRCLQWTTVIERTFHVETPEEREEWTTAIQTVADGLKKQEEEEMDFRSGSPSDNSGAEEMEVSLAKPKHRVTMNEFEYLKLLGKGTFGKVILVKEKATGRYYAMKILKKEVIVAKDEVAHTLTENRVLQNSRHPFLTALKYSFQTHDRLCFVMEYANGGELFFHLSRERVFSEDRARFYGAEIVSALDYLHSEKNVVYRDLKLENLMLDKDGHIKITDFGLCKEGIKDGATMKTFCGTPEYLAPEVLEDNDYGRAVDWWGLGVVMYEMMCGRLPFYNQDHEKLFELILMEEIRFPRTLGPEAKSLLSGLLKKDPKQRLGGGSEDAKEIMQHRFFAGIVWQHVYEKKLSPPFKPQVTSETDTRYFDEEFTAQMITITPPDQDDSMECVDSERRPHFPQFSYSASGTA

Cn1nccc1-c1nc(C(=O)N[C@H](CN)Cc2cccc(F)c2)cs1 [Example 1, N-{(1S)-2-amino-1-[(3-fluorophenyl)methyl]ethyl}-2-(1-methyl-1H-pyrazol-5-yl)-1,3-thiazole-4-carboxamide] was tested, and the IC50 was 501 nM.
